The text below walks through data of patent publication US9789098B2, “Nootropic compositions for improving memory performance” (Pharnext, priority 2012, dated 2017).

In data set [1] the test system is 11 month-old C57B1/6 mice. The experiment in a line: % of alternation in T-maze test, healthy mice (short term memory). Format: in vivo. The conditions noted are these: administered once 2 hours before the test, very low doses (mix doses 4 and 5), FIG. 2. The method, then:
11 month-old C57B1/6 mice are used. They are group-housed (5-10 mice per cage) and maintained in a room with controlled temperature (21-22° C.) and a reversed light-dark cycle (12 h/12 h; lights on: 17:30-05:30; lights off: 05:30-17:30) with food and water available ad libitum.
Drugs are solubilized in water and freshly prepared just before each gavage or ip administration and are kept under agitation.
Doses of drugs of the invention are exemplified in table 4. Concerning acamprosate calcium, the indicated doses refer to the doses of the salt of molecule.
Between day 0 and day 7, drug combinations or the vehicle solution were administered twice daily (at 8:00 am and 6:00 pm). One animal group receives donepezil (reference compound 0.3 mg/kg) at 8:00 am and the vehicle at 6:00 pm.
On day 8, all animals were tested for the % of alternation performance in the T-maze test, 2 hours after the administration of drugs combination or the vehicle solution.
The eve of the test, drug combinations or the vehicle solution were administered at 8:00 am and 6:00 pm. […]
The effect of the administration of combinations on short term memory was assessed for different durations of treatment (7 days, 1 day, 2 hours before the test). […]
The percent spontaneous alternation was calculated as the number of spontaneous alternations divided by the number of free-choice trials. […]

Data set [2] can be described thus: clinical. The conditions noted are these: human, in vivo, po. The source says: Pharmacodynamics of baclofen and acamprosate have been established in the frame of clinical trial.

SMILES strings stand for the structures.

One may read the Tmax as the time from dosing to the highest level. For the compound `NCC(CC(=O)O)c1ccc(Cl)cc1` (racemic) [baclofen, Baclofen], the “improvement of learning and working memory performances vs vehicle” value in data set [1] is “no significant improvement”. The Tmax in data set [2] was determined as 1.5 h.
For `CC(=O)NCCCS(=O)(=O)O` [acamprosate, Acamprosate], the “improvement of learning and working memory performances vs vehicle” value in data set [1] was “no significant improvement”. In addition, in data set [2], the Tmax is 1.5 to 2 h.
